Test results from patent publication US20230123334A1, “AMINO LIPID COMPOUND, PREPARATION METHOD THEREFOR, AND APPLICATION THEREOF” (SHENZHEN SHENXIN BIOTECHNOLOGY CO., LTD., priority 2020, published 2023).

Columns and labels:
HEK293 cells [1] = assay: Preliminary screening as DNA vectors, GFP transfection of HEK293 cells; assay type: cell-based; settings: HEK293 cells; lipid/DOPE liposome with 75 ng plasmid DNA (psin-EGFP-IRES-Puro); number of cells expressing GFP divided by total number of nuclei (Hoechst)
In short: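 HEK293 cells in DMEM/10% FBS transfected with 75 ng EGFP plasmid per well complexed with amino lipid/DOPE liposomes in pH 5.6 sodium acetate. Hoechst nuclear stain added 20-24 h post-transfection, then cells cultured another 20-24 h. Confocal imaging gives GFP-positive cells as % of total nuclei.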

HEK293 cells [2] = assay: Preliminary screening as mRNA vectors, EGFP mRNA transfection of HEK293 cells; assay type: cell-based; settings: HEK293 cells, 96-well plates, EGFP mRNA 50 ng per well; percentage of GFP fluorescent cells relative to total number of cells (Hoechst)
In short: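 HEK293 cells in DMEM plus 10% FBS transfected in 96-well format with 50 ng EGFP mRNA per well; Lipofectamine2000 served as positive control. Read-out is the percentage of GFP-fluorescent cells among total cells, counted by Hoechst nuclear stain.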

Compound | Absolute DNA transfection efficiency in HEK293 cells (HEK293 cells [1]) | Absolute mRNA transfection efficiency in HEK293 cells (HEK293 cells [2])
CCCCCCCCCNc1nc(NCCCCCCCC)nc(NCC2CCN(C)CC2)n1 [Compound N8N9D10] | 0.5% | 0.2%
CCCCCCCCCCCCCNc1nc(NCCCCCCC)nc(NCCN2CCCC2)n1 [Compound N7N13D3] | 0.0% | 7.8%
CCCCCCCNc1nc(NCCCCCC)nc(NCCCN2CCOCC2)n1 [Compound N6N7D8] | 0.0% | 0.0%
CCCCCCCCCCCCCNc1nc(NCCCCCCCCCCCCC)nc(NCCCN2CCN(C)CC2)n1 [Compound N13N13D9] | 1.1% | 0.2%
CCCCCCCCCCCNc1nc(NCCCCCC)nc(NCCN(C)C)n1 [Compound N6N11D1] | 0.0% | 0.1%
CCCCCCCCCCCCSc1nc(NCCN(C)C)nc(SCCCCCCCCCCC)n1 [Compound S11S12D1] | 2.3% | 4.7%
CCCCCCCCCCCNc1nc(NCCCCCCC)nc(NCCN2CCCCC2)n1 [Compound N7N11D4] | 1.4% | 0.1%
CCCCCCCCCNc1nc(NCCCCCC)nc(NCCN2CCCCC2)n1 [Compound N6N9D4] | 0.0% | 0.3%
CCCCCCCCCCCCCCCCNc1nc(NCCCCCCCCCCCCC)nc(NCCN2CCN(C)CC2)n1 [Compound N13N16D5] | 0.0% | 0.4%
CCCCCCCCCCCCCCCCCCNc1nc(NCCCCCCCCCCC)nc(NCCCN(C)C)n1 [Compound N11N18D6] | 0.4% | 0.0%
CCCCCCCCCCCCCCSc1nc(NCCN2CCN(C)CC2)nc(SCCCCCCCCCCCCCC)n1 [Compound S14S14D5] | 0.0% | 0.0%
CCCCCCCCCCCCCCCCSc1nc(NCCCN2CCN(C)CC2)nc(SCCCCCCCCCCCCCCC)n1 [Compound S15S16D9] | 0.3% | 0.5%
CCCCCCCCCCCCCCSc1nc(NCCN(C)C)nc(SCCCCCCCC)n1 [Compound S8S14D1] | 8.3% | 0.7%
CCCCCCCCCCCCCCCCCCNc1nc(NCCCCCCCC)nc(NCCN(C)C)n1 [Compound N8N18D1] | 1.8% | 6.4%
CCCCCCCCCCCCCCCCCCSc1nc(NCCN(CC)CC)nc(SCCCCCCCCCCCCCCCC)n1 [Compound S16S18D7] | 1.0% | 1.8%
CCCCCCCCCCCCCCCSc1nc(NCCN2CCCC2)nc(SCCCCCCCCCCCCCC)n1 [Compound S14S15D3] | 0.3% | 0.0%
CCCCCCCCCCCNc1nc(NCCCCCCCCCCC)nc(NCCN(C)C)n1 [Compound N11N11D1] | 0.9% | 4.3%
CCCCCCCCCCCCCCCCSc1nc(NCCN2CCN(C)CC2)nc(SCCCCCCCCCCCCCCC)n1 [Compound S15S16D5] | 0.2% | 0.2%
CCCCCCCCCCCCNc1nc(NCCCCCCCCCCC)nc(NCC2CCN(C)CC2)n1 [Compound N11N12D10] | 1.8% | 0.4%
